From US20240294543A1, “CYCLOHEPTA-THIENO-DIAZEPINE DERIVATIVES AS GABA A GAMMA1 PAM” (Hoffmann-La Roche Inc., priority 2021, published 2024)
Where two headings read alike, the source gives them in different places.

Tests used:
[1] = biological target: human GABAA α1β2γ1 receptor (Homo sapiens (Human), UniProt P14867+Q8N1C3); experiment: Radioligand binding assay, competition for [3H]RO7239181, γ1-containing GABAA subtypes
[2] = biological target: human GABAA α2β2γ1 receptor (Homo sapiens (Human), UniProt P47869+Q8N1C3); experiment: as above
[3] = biological target: human GABAA α1β3γ2 receptor (Homo sapiens (Human), UniProt P14867+P18507); experiment: Radioligand binding assay, competition for [3H]Flumazenil, γ2-containing GABAA subtypes; conditions: for γ2/γ1 Selectivity Ratio: Ki α1β3γ2 (nM)/Ki α2β2γ1 (nM); for LogSel: Log[Ki α1β3γ2 (nM)/Ki α2β2γ1 (nM)]
In short: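 Competition against [3H]Flumazenil binding in HEK293F cells transiently expressing human α1β3γ2 receptors, pellets resuspended in mannitol buffer pH 7,2-7,4. Incubated to equilibrium 1 hour at 4° C, filtered and washed with ice-cold 50 mM Tris pH 7.5, bound radioactivity by liquid scintillation counting. Ki values are means of two determinations.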

[4] = Ki h-GABAA α1β2γ1, membranes of HEK293F cells, [3H]RO7239181 20-30 nM, Table 1
[5] = Ki h-GABAA α2β2γ1, membranes of HEK293F cells, [3H]RO7239181 20-30 nM, Table 1
[6] = Ki h-GABAA α2β2γ1, membranes of HEK293F cells, [3H]RO7239181 20-30 nM, Table 2
[7] = Ki h-GABAA α1β2γ1, Table 3, reference compounds and examples
[8] = Ki h-GABAA α2β2γ1, Table 3, reference compounds and examples
[9] = read-out: Ki h-GABAA α1β3γ2, Table 3, reference compounds and examples
[10] = HEK293F cells, [3H]Flumazenil 1 nM, Table 1, read-out: Ki h-GABAA α1β3γ2

Row | SMILES | Ki [1, 4] [nM] | Ki [2, 5] [nM] | Ki [2, 6] [nM] | Ki [3] [nM] | γ2/γ1 Selectivity Ratio ([3]; Table 1) | LogSel ([3]; Table 1) | Ki [1, 7] [nM] | Ki [2, 8] [nM] | γ2/γ1 Selectivity Ratio ([3]; Table 3) | LogSel ([3]; Table 3) | Ki [3, 9] [nM] | Ki [3, 10] [nM]
1 | Cc1nnc2n1-c1sc3c(c1C(c1c(F)cccc1F)=N[C@H]2C)CCCC[C@@H]3F (single isomer, unassigned) [Example 12] | 45.7 | 33.7 | 33.7 | 1010 | 29.9 | 1.48 | – | – | – | – | – | –
2 | Cc1nnc2n1-c1sc3c(c1C(c1c(F)cccc1F)=N[C@H]2C)CC[C@H](F)CC3 (single isomer, unassigned) [Example 14] | 118 | 38.4 | 38.4 | 11000 | 286.6 | 2.46 | – | – | – | – | – | –
3 | Cc1nnc2n1-c1sc3c(c1C(c1c(F)cccc1F)=N[C@H]2C)CC[C@@H](F)CC3 (single isomer, unassigned) [Example 15] | 131 | 42.8 | 42.8 | 3530 | 82.5 | 1.92 | – | – | – | – | – | –
4 | Cc1nnc2n1-c1sc3c(c1C(c1c(F)cccc1F)=N[C@H]2C)CCC[C@H](F)C3 (single isomer, unassigned) [Example 17] | 30.2 | 4.31 | 4.3 | 584 | 135.6 | 2.13 | – | – | – | – | – | –
5 | Cc1nnc2n1-c1sc3c(c1C(c1c(F)cccc1F)=N[C@H]2C)CCC(F)C(F)C3 (single isomer, unassigned) [Example 34] | 103 | 31.7 | 31.7 | 10800 | 340.3 | 2.53 | – | – | – | – | – | –
6 | Cc1nnc2n1-c1sc3c(c1C(c1c(F)cccc1F)=NC2)CCCCC3 [Example 1, 9-(2,6-difluorophenyl)-3-methyl-18-thia-2,4,5,8-tetrazatetracyclo[8.8.0.02,6.011,17]octadeca-1(10),3,5,8,11(17)-pentaene] | 20 | 7.5 | 7.5 | 374 | 49.6 | 1.70 | 19.7 | 7.5 | 49.6 | 1.7 | 374 | –
7 | Cc1nnc2n1-c1sc3c(c1C(c1c(F)cccc1F)=N[C@H]2C)CCCCC3 [Example 2, (7S)-9-(2,6-difluorophenyl)-3,7-dimethyl-18-thia-2,4,5,8-tetrazatetracyclo[8.8.0.02,6.011,17]octadeca-1(10),3,5,8,11(17)-pentaene] | 19.2 | 7.4 | 7.4 | 994 | 133.9 | 2.13 | – | – | – | – | – | –
8 | Cc1nnc2n1-c1sc3c(c1C(c1c(F)cccc1F)=N[C@H]2C)CCCC(F)(F)C3 [Example 8, (7S)-9-(2,6-difluorophenyl)-15,15-difluoro-3,7-dimethyl-18-thia-2,4,5,8-tetrazatetracyclo[8.8.0.02,6.011,17]octadeca-1(10),3,5,8,11(17)-pentaene] | 312 | 51.3 | 51.3 | 2760 | 53.8 | 1.73 | – | – | – | – | – | –
9 | Cc1nnc2n1-c1sc3c(c1C(c1c(F)cccc1F)=NC2)CCCCO3 [Example 18, 9-(2,6-difluorophenyl)-3-methyl-16-oxa-18-thia-2,4,5,8-tetrazatetracyclo[8.8.0.02,6.011,17]octadeca-1(10),3,5,8,11(17)-pentaene] | 55.1 | 20.9 | 20.9 | 428 | 20.5 | 1.31 | – | – | – | – | – | –
10 | Cc1nnc2n1-c1sc3c(c1C(c1c(F)cccc1F)=N[C@H]2C)CCCCO3 [Example 19, (7S)-9-(2,6-difluorophenyl)-3,7-dimethyl-16-oxa-18-thia-2,4,5,8-tetrazatetracyclo[8.8.0.02,6.011,17]octadeca-1(10),3,5,8,11(17)-pentaene] | 80.5 | 16.8 | 16.9 | 615 | 36.5 | 1.56 | – | – | – | – | – | –
11 | Cc1nnc2n1-c1sc3c(c1C(c1c(F)cccc1F)=N[C@H]2C)COCCO3 [Example 21, (7S)-9-(2,6-difluorophenyl)-3,7-dimethyl-13,16-dioxa-18-thia-2,4,5,8-tetrazatetracyclo[8.8.0.02,6.011,17]octadeca-1(10),3,5,8,11(17)-pentaene] | 52.6 | 20.2 | 20.2 | 1360 | 67.2 | 1.83 | 52.6 | 20.2 | 67.2 | 1.8 | 1360 | –
12 | C[C@@H]1N=C(c2c(F)cccc2F)c2c(sc3c2COCCO3)-n2nc(C(=O)N3CC(F)C3)nc21 [Example 24, (3-fluoroazetidin-1-yl)-[(7S)-9-(2,6-difluorophenyl)-7-methyl-13,16-dioxa-18-thia-2,3,5,8-tetrazatetracyclo[8.8.0.02,6.011,17]octadeca-1(10),3,5,8,11(17)-pentaen-4-yl]methanone] | 24.7 | 3.75 | 3.8 | – | 691.7 | 2.84 | – | – | – | – | – | 2600
13 | Cc1nnc2n1-c1sc3c(c1C(c1c(F)cccc1F)=N[C@H]2C)COC[C@H](C)O3 [Example 30, (7S,15S)-9-(2,6-difluorophenyl)-3,7,15-trimethyl-13,16-dioxa-18-thia-2,4,5,8-tetrazatetracyclo[8.8.0.02,6.011,17]octadeca-1(10),3,5,8,11(17)-pentaene] | 205 | 36.9 | 36.9 | 1830 | 49.6 | 1.70 | – | – | – | – | – | –
14 | CCOC1CN(C(=O)c2nc3n(n2)-c2sc4c(c2C(c2c(F)cccc2F)=N[C@H]3C)COCCO4)C1 [Example 31, [(7S)-9-(2,6-Difluorophenyl)-7-methyl-13,16-dioxa-18-thia-2,3,5,8-tetrazatetracyclo[8.8.0.02,6.011,17]octadeca-1(10),3,5,8,11(17)-pentaen-4-yl]-(3-ethoxyazetidin-1-yl)methanone] | 43.6 | 5.5 | 5.6 | – | 818.0 | 2.91 | – | – | – | – | – | 4540
15 | Cc1nnc2n1-c1sc3c(c1C(c1c(F)cccc1F)=N[C@H]2C)OCCCC3 [Example 33, (7S)-9-(2,6-difluorophenyl)-3,7-dimethyl-12-oxa-18-thia-2,4,5,8-tetrazatetracyclo[8.8.0.02,6.011,17]octadeca-1(10),3,5,8,11(17)-pentaene] | 380 | 55.9 | 55.9 | 3720 | 66.5 | 1.82 | – | – | – | – | – | –
16 | C[C@@H]1N=C(c2c(F)cccc2F)c2c(sc3c2COCCC3)-n2cc(C(=O)NCCO)nc21 [Example 66, (7S)-9-(2,6-difluorophenyl)-N-(2-hydroxyethyl)-7-methyl-13-oxa-18-thia-2,5,8-triazatetracyclo[8.8.0.02,6.011,17]octadeca-1(10),3,5,8,11(17)-pentaene-4-carboxamide] | – | 14.7 | 14.7 | – | 170.6 | 2.23 | – | – | – | – | – | 2510
17 | C[C@@H]1N=C(c2c(F)cccc2F)c2c(sc3c2COCCC3)-n2cc(C(=O)NCC(C)(C)O)nc21 [Example 67, (7S)-9-(2,6-difluorophenyl)-N-(2-hydroxy-2-methyl-propyl)-7-methyl-13-oxa-18-thia-2,5,8-triazatetracyclo[8.8.0.02,6.011,17]octadeca-1(10),3,5,8,11(17)-pentaene-4-carboxamide] | – | 21.3 | 21.3 | – | 84.5 | 1.93 | – | – | – | – | – | 1800
18 | C[C@@H]1N=C(c2c(F)cccc2F)c2c(sc3c2COCCC3)-n2cc(C(=O)NCC3(O)CC3)nc21 [Example 68, (7S)-9-(2,6-difluorophenyl)-N-[(1-hydroxycyclopropyl)methyl]-7-methyl-13-oxa-18-thia-2,5,8-triazatetracyclo[8.8.0.02,6.011,17]octadeca-1(10),3,5,8,11(17)-pentaene-4-carboxamide] | – | 10.6 | 10.6 | – | 187.5 | 2.27 | – | – | – | – | – | 1980
19 | C[C@@H]1N=C(c2c(F)cccc2F)c2c(sc3c2COCCC3)-n2nc(C(=O)NC[C@@](C)(O)C(F)(F)F)nc21 [Example 70, (7S)-9-(2,6-difluorophenyl)-7-methyl-N-[(2R)-3,3,3-trifluoro-2-hydroxy-2-methyl-propyl]-13-oxa-18-thia-2,3,5,8-tetrazatetracyclo[8.8.0.02,6.011,17]octadeca-1(10),3,5,8,11(17)-pentaene-4-carboxamide] | – | 49.9 | 49.9 | – | 71.1 | 1.85 | – | – | – | – | – | 3550
